From patent US20250178998A1, “CRYSTAL FORM OF CYCLOHEXENONE COMPOUND” (TAIHO PHARMACEUTICAL CO., LTD., priority 2022, published 2025)

Tests used:
[1] = Pharmacokinetics after oral administration to rats; format: in vivo, rat (Crl: CD (SD)); conditions: male rat, 10 mg/kg
Description: The required amount of compound (I) was weighed, and a drug suspension was prepared in 0.5% hydroxypropyl methylcellulose. The number of rats in each group was two, and each drug suspension was administered orally to each male rat (Crl: CD (SD)) using an oral sonde (the dose of the compound was 10 mg/kg). At each blood collection point (0.5, 1, 2, 4, 8, and 24 hours after administration), blood was collected from the jugular vein using a syringe and a needle (the anticoagulant was heparin sodium). The collected blood was centrifuged (13000 rpm, 2 min, 4° C.) to prepare plasma, followed by deproteinization. Thereafter, the concentration of the compound in the plasma was measured by LC/MS/MS (LCMS-8040 (Shimadzu Corporation) or API 4000 (AB Sciex), LC: 30-A and 20-A series (Shimadzu Corporation) or Waters Acquity (Waters Corporation)). A drug suspension was prepared and administered, and the concentration of the compound was measured, in the same manner as described above, except that compound A was used in place of compound (I).

[2] = tested on: streptozotocin-induced diabetes mellitus (DM) rat model; assay: Drug efficacy in diabetes mellitus (DM) rat model, bladder function by cystometry; format: in vivo, SD rats; conditions: STZ DM rats, oral twice a day for 4 weeks
Description: To examine the effect of the compound in a diabetes mellitus model, bladder function was analyzed by cystometry based on the method of Saitoh et al. (European Journal of Pharmacology 501 (2004) 143-149).
A streptozotocin (STZ) solution obtained by dissolving STZ in a citrate buffer solution (0.1 M citric acid, pH of 4.2) to a concentration of 32.5 mg/mL was prepared, and administered intraperitoneally (65 mg/kg) to SD rats to induce DM models. The same procedure was performed on sham rats except that a citrate buffer solution was used in place of the STZ solution.
On the day after the model production and 4 weeks later, a blood sample was taken from the tail vein with the rats awake to measure the blood glucose level. […] Individuals with a blood glucose level of 300 mg/dL or more on the day after the production of the model and 4 weeks later were determined to be established DM models and used in subsequent operations. […]
A pressure transducer (DX-360, Nihon Kohden Kogyo Co., Ltd.) and an infusion pump (TE-331S, Terumo Corporation) were connected via a three-way valve to the other end of the catheter inserted into the bladder. […] The volume of urination was automatically measured using an electronic balance (GX-200, A&D Company Limited) set directly under the holding cage, and recorded continuously on a computer using a PowerLab (sampling rate: 20/sec). […]

ND3 neuronal cell line = assay: Nerve growth stimulation effect: neurite bearing assay and neurite length assay; format: cell-based; conditions: for Number of cells (relative cell number, DMSO well = 1) / Neurite length per cell (relative activity, maximum activity of compound (I) = 1) / Proportion of neurite-bearing cells (relative activity, maximum activity of compound (I) = 1): 6 hours
Description: To evaluate the nerve growth stimulation effect, neurite bearing assay (proportion of neurite-bearing cells) and neurite length assay (neurite length) were analyzed with reference to the method of Topalli et al. (Brain Research 1030 (2004), pp. 116-124).
An ND3 neuronal cell line (European Collection of Authenticated Cell Cultures) was seeded in a DMEM medium containing 10% fetal bovine serum (0.6×10^4 cells/1 mL) in a 24-well plate. 24 hours later, the medium of seeded cells was removed, and a solution in which compound (I) that was sequentially diluted in dimethyl sulfoxide (DMSO) was adjusted in DMEM containing 0.1% bovine serum albumin so that the DMSO final concentration was 0.1%, was added to cells (evaluation performed in duplicate). After six hours from the addition, the proportion of neurite-bearing cells (the number of cells having a neurite longer than the diameter of the cell body/number of total cells), and the neurite length per cell were analyzed. Further, a test was performed in the same manner as described above, except that compound A was used in place of compound (I). The number of total cells, proportion of neurite-bearing cells, and neurite length per cell were analyzed using a MetaMorph Neurite Outgrowth Application Module (Molecular Devices Japan K. K.). The number of cells was defined as the relative cell number, taking the number of cells per well containing DMSO as 1 (Tables 4 and 5). […] The test was conducted multiple times, and the average value was shown. Data with a number of cells of 0.5 or more was used. Accordingly, if the number of cells was less than 0.5, the neurite length per cell and the proportion of neurite-bearing cells were defined as […]

[3] = Solid stability test (HPLC purity after storage); format: physicochemical; conditions: for Change in purity / Change in purity (in words) / Increase in related substances / Purity after 4 weeks of storage under sealed conditions at 25° C.: 25° C./60% RH (closed system), 4 weeks; for Purity after 4 weeks of storage under sealed conditions at 25° C. / Purity of compound (I) before storage: HPLC
Description: The solid stability of the type I crystal, type II crystal, and type III crystal of compound (I) obtained in Examples 1 to 3 was evaluated after storage for 4 weeks.
Storage condition: 25° C./60% RH (closed system)
Storage amount: about 25 mg
Storage container: glass bottle
Changes in the purity of compound (I) and in the amounts of related substances (the amounts of substances detected other than compound (I)) were analyzed by weighing about 1 mg of the sample, dissolving it in 2 mL of acetonitrile, and accurately measuring 5 μL of this liquid for analysis by HPLC according to the following method. The handling of the apparatus, including data processing, was in accordance with the method and procedure as instructed for each apparatus.
Column: YMC-Triart C8 (4.6×150 mm, 3 μm), produced by YMC Co., Ltd.
Column temperature: 40° C.
Sample concentration: 0.5 mg/mL
Mobile phase A: Liquid mixture of water/acetonitrile (1:1 v/v)
Mobile phase B: Acetonitrile

[4] = Dynamic moisture adsorption/desorption test; format: physicochemical; conditions: at 95% relative humidity, 25° C.
Description: The type I crystal, type II crystal, and type III crystal of compound (I) obtained in Examples 1 to 3 were subjected to a moisture adsorption/desorption test after storage for 4 weeks.
The moisture adsorption/desorption test was performed according to the following conditions.
About 10 mg of the sample was filled in a dedicated quartz holder, and the weight of the sample at each humidity was continuously measured and recorded under the following conditions. The handling of the apparatus, including data processing, was in accordance with the method and procedure as instructed for each apparatus.
Apparatus: VTI-SA+ (TA Instruments, Inc.)
Drying temperature: 25° C.
Temperature increase rate: 1° C./min
Measurement temperature: 25° C.
Relative humidity program: Increase by 5% RH from 5% RH to 95% RH and decrease by 5% RH from 95% RH to 5% RH

SMILES	Number of cells (relative cell number, DMSO well = 1) (ND3 neuronal cell line; 1 μM)	Number of cells (relative cell number, DMSO well = 1) (ND3 neuronal cell line; 3 μM)	Number of cells (relative cell number, DMSO well = 1) (ND3 neuronal cell line; 5 μM)	Number of cells (relative cell number, DMSO well = 1) (ND3 neuronal cell line; 10 μM)	Number of cells (relative cell number, DMSO well = 1) (ND3 neuronal cell line; 30 μM)	Change in purity [3]	Change in purity (in words) [3]	Increase in related substances [3]	Purity after 4 weeks of storage under sealed conditions at 25° C. [3]	Purity of compound (I) before storage [3]	Moisture absorption [4]	further results
COCCCCCCCCCCCCCCCC1=C(C)C(=O)CCC1(C)C [Compound (I), 3-(15-methoxypentadecyl)-2,4,4-trimethylcyclohex-2-en-1-one]	1.06	1.01	0.94	0.92	0.96	–	–	–	–	–	–	Improvement in area under the curve (AUC) as compared to compound A [1]: ≥ 1900 times; Improvement in maximum blood concentration Cmax as compared to compound A [1]: ≥ 1100 times; Drug efficacy (residual urine volume, FIG. 10) as compared to compound A [2]: remarkable drug efficacy; Number of cells (relative cell number, DMSO well = 1) (ND3 neuronal cell line; 100 μM): 0.92; Nerve growth stimulation effect compared to compound A (ND3 neuronal cell line; Table 5): excellent nerve growth stimulation effect; Number of relative cells (ND3 neuronal cell line; added in an amount of 1 to 100 μM): ≥ 0.5
CC1=C(CCCCCCCCCCCCCCCO)C(C)(C)CCC1=O [Compound A, 3-(15-Hydroxypentadecyl)-2,4,4-trimethylcyclohex-2-en-1-one]	1.03	0.92	0.92	1.0	0.19	–	–	–	–	–	–	Neurite length per cell (relative activity, maximum activity of compound (I) = 1) (ND3 neuronal cell line; 1 μM): 0.26; Proportion of neurite-bearing cells (relative activity, maximum activity of compound (I) = 1) (ND3 neuronal cell line; 1 μM): 0.24; Neurite length per cell (relative activity, maximum activity of compound (I) = 1) (ND3 neuronal cell line; 3 μM): 0.33; Proportion of neurite-bearing cells (relative activity, maximum activity of compound (I) = 1) (ND3 neuronal cell line; 3 μM): 0.34; Neurite length per cell (relative activity, maximum activity of compound (I) = 1) (ND3 neuronal cell line; 5 μM): 0.39; Proportion of neurite-bearing cells (relative activity, maximum activity of compound (I) = 1) (ND3 neuronal cell line; 5 μM): 0.41; Neurite length per cell (relative activity, maximum activity of compound (I) = 1) (ND3 neuronal cell line; 10 μM): 0.71; Proportion of neurite-bearing cells (relative activity, maximum activity of compound (I) = 1) (ND3 neuronal cell line; 10 μM): 0.70
COCCCCCCCCCCCCCCCC1=C(C)C(=O)CCC1(C)C [Type I crystal, 3-(15-methoxypentadecyl)-2,4,4-trimethylcyclohex-2-en-1-one]	–	–	–	–	–	+0.01%	almost no change in purity	almost no increase in related substances	99.71%	99.70%	almost no moisture absorption	–
COCCCCCCCCCCCCCCCC1=C(C)C(=O)CCC1(C)C [Type II crystal, 3-(15-methoxypentadecyl)-2,4,4-trimethylcyclohex-2-en-1-one]	–	–	–	–	–	−0.01%	almost no change in purity	almost no increase in related substances	99.72%	99.73%	almost no moisture absorption	–
COCCCCCCCCCCCCCCCC1=C(C)C(=O)CCC1(C)C [Type III crystal, 3-(15-methoxypentadecyl)-2,4,4-trimethylcyclohex-2-en-1-one]	–	–	–	–	–	–	almost no change in purity	almost no increase in related substances	99.77%	99.77%	almost no moisture absorption	–
